Measured values taken from patent publication US8754115B2, “Fungicidal pyrazoles” (E I du Pont de Nemours and Company, priority 2010, dated 2014).
Marks after values point to notes of the source that are not given here.

Tests used:
Type in all cases: in vivo
Botrytis cinerea = assay: Test A: preventive spray on tomato seedlings, visual disease rating (tomato Botrytis)
Outline: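 Tomato seedlings sprayed to run-off with 200 ppm suspension (800 g/ha; asterisk marks 40 ppm), inoculated next day with Botrytis cinerea spores, held 48 h saturated at 20 °C then 3 days at 24 °C. Visual rating: 100 = full disease control, 0 = none, relative to controls.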

Septoria tritici = assay: Test D: preventive spray on wheat seedlings, visual disease rating (wheat leaf blotch)
Outline: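 Wheat seedlings were sprayed to run-off with a 200 ppm suspension (equal to 800 g/ha), or 40 ppm where marked with an asterisk, and inoculated with Septoria tritici spores the next day. Plants were kept at 24 °C in saturated air for 48 h, then at 20 °C for 19 days. Disease control was rated visually from 0 to 100 relative to controls.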

[1] = test system: Puccinia recondite f. sp. tritici; assay: Test E2: preventive spray on wheat seedlings, visual disease rating (wheat leaf rust)
Outline: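 Test suspension (acetone 3% of volume, acetone/water 50/50, 250 ppm Trem 014), 200 ppm unless starred (40 ppm), sprayed to run-off on wheat seedlings; inoculated next day with P. recondita spores. 24 h saturated atmosphere at 20 °C, then 7 days at 20 °C; visual rating, 100 = full control vs untreated.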

Septoria nodorum = assay: Test C: preventive spray on wheat seedlings, visual disease rating (Septoria glume blotch)
Outline: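 Wheat seedlings were sprayed to run-off with 200 ppm suspension (40 ppm where marked; 200 ppm ≈ 800 g/ha) in acetone/water with 250 ppm Trem 014, then inoculated next day with Septoria nodorum spores. Incubation was 48 h saturated at 24 °C, then 6 days at 20 °C; visual rating 0–100% disease control versus controls.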

[2] = test system: Puccinia recondite f. sp. tritici; assay: Test E1: curative spray on wheat seedlings after inoculation, visual disease rating (wheat leaf rust)
Outline: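 Seedlings inoculated with rust spores, held 24 h in saturated atmosphere at 20 °C, then 2 days at 20 °C before curative spray to run-off with test suspension (200 ppm ≈ 800 g/ha, or 40 ppm where marked) in acetone/water with surfactant. Visual disease control rating (0–100) after 6 further days at 20 °C.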

[3] = test system: Blumeria graminis f. sp. tritici; assay: Test F: preventive spray on wheat seedlings, visual disease rating (wheat powdery mildew)
Outline: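 Compound in acetone/water (50/50) with 250 ppm surfactant, sprayed to run-off on wheat seedlings at 200 ppm (≈800 g/ha) or, where marked, 40 ppm. Seedlings dusted with spores the next day, kept 8 days at 20° C., then rated visually as % disease control versus untreated plants.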

Alternaria solani = assay: Test B: preventive spray on tomato seedlings, visual disease rating (tomato early blight)
Outline: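 Compounds were suspended at 200 ppm (asterisked values at 40 ppm) in acetone/water with surfactant and sprayed to run-off on tomato seedlings, 200 ppm being equivalent to 800 g/ha. A. solani spores were inoculated the next day, with 48 h at 27 °C in saturated air, then 5 days at 20 °C. Disease control was rated visually, 0–100% relative to controls.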

[4] = no asterisk: standard test suspension, not 40 ppm, 100 = 100% disease control, 0 = none
[5] = no asterisk: standard test suspension, not 40 ppm
[6] = asterisk: 40 ppm test suspension

| Compound | Test A rating (% disease control) (Botrytis cinerea; [4]) | Test D rating (% disease control) (Septoria tritici; [5]) | Test E2 rating (% disease control) [1, 5] | Test C rating (% disease control) (Septoria nodorum; [5]) | Test E1 rating (% disease control) [2, 5] | Test F rating (% disease control) [3, 5] | Test B rating (% disease control) (Alternaria solani; [5]) | Test D rating (% disease control) (Septoria tritici; [6]) | Test E1 rating (% disease control) [2, 6] | Test B rating (% disease control) (Alternaria solani; [6]) | Test A rating (% disease control) (Botrytis cinerea; [6]) | Test E2 rating (% disease control) [1, 6] | Test C rating (% disease control) (Septoria nodorum; [6]) | Test F rating (% disease control) [3, 6] |
| --- | --- | --- | --- | --- | --- | --- | --- | --- | --- | --- | --- | --- | --- | --- |
| COc1cc(F)c(C(O)c2c(C)nn(C)c2-c2c(F)cccc2F)c(F)c1 (stereo not drawn) [compound 16] | 100% | 100% | 100% | 0% | 54% | 93% | 99% | – | – | – | – | – | – | – |
| Cn1nc(C#N)c(C(=O)c2ccc(F)cc2Cl)c1-c1c(F)cccc1F [Compound 52, 4-(2-chloro-4-fluorobenzoyl)-5-(2,6-difluorophenyl)-1-methyl-1H-pyrazole-3-carbonitrile] | 100% | 100% | 100% | 99% | 98% | 100% | 100% | – | – | – | – | – | – | – |
| Cc1nn(C)c(-c2c(F)cccc2Cl)c1C(O)c1ccc(C#N)cc1F (stereo not drawn) [compound 38] | 85% | 100% | 100% | 100% | 0% | 98% | 99% | – | – | – | – | – | – | – |
| Cc1nn(C)c(-c2c(F)cccc2F)c1C(O)c1ccc(F)cc1Cl (single isomer, unassigned) [compound 87] | 100% | – | 99% | 100% | – | 99% | – | 99* % | 0* % | 0* % | – | – | – | – |
| COc1ccc(-c2c(Oc3ccc(F)cc3Cl)c(C)nn2C)c(Cl)c1 [compound 31] | 100% | 100% | 92% | 0% | 0% | 96% | 0% | – | – | – | – | – | – | – |
| Cc1nn(C)c(-c2ccc(F)cc2Cl)c1Oc1ccc(C#N)cc1Cl [compound 43] | 98% | 100% | 98% | 0% | 0% | 97% | 0% | – | – | – | – | – | – | – |
| COC(c1ccc(F)cc1Cl)c1c(C)nn(C)c1-c1c(F)cccc1Cl (stereo not drawn) [Compound 67] | 57% | 100% | 90% | 0% | 28% | 100% | 9% | – | – | – | – | – | – | – |
| Cc1nn(C)c(-c2ccc(F)cc2Br)c1C(O)c1c(F)cc(F)cc1F (stereo not drawn) [compound 82] | 99% | 99% | 100% | 92% | 27% | 100% | 100% | – | – | – | – | – | – | – |
| Cc1nn(C)c(-c2ccc(F)cc2Cl)c1C(O)c1ccc(F)cc1Cl (stereo not drawn) [compound 18] | 100% | 100% | 100% | 0% | 100% | 100% | 83% | – | – | – | – | – | – | – |
| 4-[(2-chloro-4-fluorophenyl)hydroxymethyl]-5-(2,6-difluorophenyl)-1-methyl-1H-pyrazole-3-carbonitrile [Compound 53] | 100% | 95% | 97% | 0% | 91% | 96% | 0% | – | – | – | – | – | – | – |
| Cc1nn(C)c(-c2ccc(F)cc2Cl)c1C(O)c1ccc(C#N)cc1F (stereo not drawn) [compound 25] | 100% | 100% | 100% | 89% | 9% | 96% | 99% | – | – | – | – | – | – | – |
| 3-bromo-5-(2-chloro-4-fluorophenyl)-α-(2,4-difluorophenyl)-1-methyl-1H-pyrazole-4-methanol [Compound 30] | 100% | 100% | 100% | 0% | 100% | 99% | 0% | – | – | – | – | – | – | – |
| Cc1nn(C)c(-c2c(F)cccc2F)c1C(O)c1c(F)cc(F)cc1F (stereo not drawn) [compound 15] | 100% | 100% | 100% | 86% | 68% | 100% | 100% | – | – | – | – | – | – | – |
| Cc1nn(C)c(-c2c(F)cccc2Cl)c1C(=O)c1ccc(F)cc1F [compound 28] | 56% | 0% | 8% | 0% | 0% | 79% | 0% | – | – | – | – | – | – | – |
| Cc1nn(C)c(-c2ccc(F)cc2Br)c1C(=O)c1ccc(F)cc1Cl [compound 83] | – | – | – | – | – | – | – | 25* % | 0* % | 0* % | 55* % | 74* % | 0* % | 99* % |
